Measurements taken from patent US10335488B2, “Method for treating cancer by photodynamic therapy” (D. R. NANO CO., LTD., priority 2014, dated 2019).

Columns and labels:
[1] = tested on: cancer cells MDA-MB-231, MCF-7, PC-3, HeLa, HT-29; normal cells MRC-5, clone 1-5c-4, NIH/3T3; assay: Accumulation in cells by fluorescence microscopy; type: cell-based, human; mouse (NIH/3T3); conditions: 1 hour incubation, fluorescence microscope
Protocol: In order to determine if the nanoparticles (MB NPs) prepared in Example 1 would be accumulated in the cancer cell, 1×10^5 of each of cancer cells MDA-MB-231 (breast, mammary gland/human, Korean Cell Line Bank), MCF-7 (breast, mammary gland/human, Korean Cell Line Bank), PC-3 (prostate; grade 4; metastasis to bone/human, Korean Cell Line Bank), HeLa (cervix/human, Korean Cell Line Bank), and HT-29 (Colon/human, Korean Cell Line Bank) was respectively dispersed in 2 mL of cell culture solution [DMEM (WELGENE) culture solution was used for the HeLa cell, and RPMI1640 (WELGENE) culture solution was used for the other cells]. And then the solution was put into a dish for cell culture (35 mm, glass-bottomed dish), and cultured in a culture chamber (5% CO2, 37° C.). After 24 hours, the dish was washed with 2 mL of DPBS (WELGENE), and 1.8 mL of the culture solution and 0.2 mL of the nanoparticles were added thereto, and the resulting dish was stored in a culture chamber (5% CO2, 37° C.) for 1 hour. The stored cell culture dish was washed with 2 mL of DPBS, cells were fixed with 1 mL of a cell fixation solution, and then fluorescence images were observed by fluorescence microscope (LEICA DMI3000B equipped with a Nuance FX multispectral imaging system, CRI). […]

[2] = tested on: cancer cells (MDA-MB-231, MCF-7, PC-3, HeLa, HT-29) and normal cells (MRC-5, Clone-1-5c-4, NIH3T3); assay: Cytotoxicity (Dark) by MTT analysis; type: cell-based, human; mouse (NIH/3T3); conditions: 1 hour incubation, no laser
Protocol: In order to confirm of the cytotoxicity of MB NPs, 200 μL of a cell culture solution in which 1×10^4 ea of cells were dispersed was put into a dish for cell culture (96-well plate) and cultured (5% CO2, 37° C.) in an artificial culture chamber for 24 hours, and the dish was washed with DPBS, and then a mixture solution of 20 μL of MB NPs and 180 μL of a cell culture solution was added to the cell, and the resulting culture solution was cultured in the same artificial culture chamber for 1 hour. After the dish was washed with DPBS, the number of each cell was observed by the MTT analysis method.
The experiment was performed on cancer cells and normal cells, and MDA-MB-231 cell, MCF-7 cell, PC-3 cell, HeLa cell, and HT-29 cell are illustrated in FIGS. 7a, 7b, 7c, 7d, and 7e, respectively, and normal cells MRC-5, Clone-1-5c-4, and NIH3T3 are illustrated in FIGS. 8a to 8c, respectively.

With `CN(C)c1ccc2nc3ccc(=[N+](C)C)cc-3sc2c1` [MB Sol., methylene blue] the “infiltration capacity into cell” value [1] was “not found in the cell” and the “cytotoxicity of the material (Dark)” value [2] was “no cytotoxicity of the material itself”.
